What was measured:
human GPR 119 receptor = target: T1, human GPR 119 receptor (Homo sapiens, UniProt Q8TDV5); test: cAMP assay in stable cell line expressing recombinant human GPR 119 receptor; assay type: cell-based; conditions: for Fold increase in cyclic AMP with respective to DMSO: DMSO = 1
T1 construct: expressed in transfected cells
T1 sequence (Q8TDV5 1-335): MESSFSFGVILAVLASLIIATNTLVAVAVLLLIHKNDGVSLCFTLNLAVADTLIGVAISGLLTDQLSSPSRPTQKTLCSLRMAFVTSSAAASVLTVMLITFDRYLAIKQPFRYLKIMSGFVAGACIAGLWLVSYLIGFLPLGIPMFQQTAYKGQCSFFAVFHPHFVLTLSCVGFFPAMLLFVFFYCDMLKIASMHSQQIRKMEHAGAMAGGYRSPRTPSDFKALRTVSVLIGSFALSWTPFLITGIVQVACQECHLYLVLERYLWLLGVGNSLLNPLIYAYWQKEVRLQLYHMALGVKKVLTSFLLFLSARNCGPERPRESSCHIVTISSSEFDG
Text: A stable cell line expressing recombinant human GPR 119 receptor was established and used to investigate the efficacy of the compounds of the invention based on the intracellular levels of cyclic AMP (cAMP) using commercially available cAMP kits.

C57/BL6 mice = test: Oral Glucose Tolerance Tests (OGTT) in C57/BL6 mice; assay type: in vivo; conditions: single oral dose, glucose load 3 gm/kg, serum glucose AUC, head 50 mg/kg
Description: In Vivo Efficacy Studies: Oral Glucose Tolerance Tests (OGTT) in C57/13L6 mice:
C57/BL6 mice of 6-8 week age are used for this experiment. Animals are grouped based on non-fasting serum glucose levels and kept on fasting for overnight (day before OGTT). On the experiment day, […], 30 min post dosing animals are bled for basal glucose level estimation and at the same time glucose load (3 gm/kg) will be administered per orally. Blood is collected at time points corresponding to 20, 40, 60 and 120 min after glucose load administration. Serum is separated for determination of glucose levels and change in area under curve for glucose is calculated and provided in Table 3 as % to reduction in AUC.

db/db mice = test: Oral Glucose Tolerance Tests (OGTT) in db/db mice; assay type: in vivo; conditions: single oral dose 50 mg/kg, glucose load 2 g/kg, AUC glucose excursion vs vehicle control
Description: Oral Glucose Tolerance Tests (OGTT) in db/db mice:
db/db mice of 5-7 week age are used for this experiment. Animals were kept on fasting and are grouped based on fasting serum glucose levels and after grouping OGTT was performed. Each animal receive a single dose of vehicle/test compounds (50 mg/kg) administered orally, 30 min post dosing animals are bled for basal glucose level estimation and at the same time glucose load (2 g/kg) will be administered per orally. Blood is collected at time points corresponding to 30, 60 and 120 min after glucose load administration. Serum is separated for determination of glucose levels and change in area under curve for glucose and glucose excursion is calculated from Vehicle control with glucose load Vs water control group without glucose load and provided in Table 4 as % reduction in AUC glucose excursion Vs Vehicle control is calculated.

| EC50 (human GPR 119 receptor) [nM] | Fold increase in cyclic AMP with respective to DMSO (human GPR 119 receptor; 10 nM compound) [fold] | Fold increase in cyclic AMP with respective to DMSO (human GPR 119 receptor; 100 nM compound) [fold] | Fold increase in cyclic AMP with respective to DMSO (human GPR 119 receptor; 1 uM compound) [fold] | Compound | % reduction in AUC at 50 mg/kg (C57/BL6 mice) [%] | % reduction in AUC at 50 mg/kg (db/db mice) [%] |
| --- | --- | --- | --- | --- | --- | --- |
| 88 | 0.90 | 2.27 | 3.96 | Cc1c(Oc2ccc(/C=C3\SC(=O)NC3=O)cc2)ncnc1OC1CCN(C(=O)OC(C)(C)C)CC1 [Example 1, (Z)-tert-Butyl 4-((6-(4-((2,4-dioxothiazolidin-5-ylidene)methy 1)phenoxy)-5-methylpyrimidin-4-yl)oxy)piperidine-1-carboxylate] | 35.0 | 56.2 |
| 130 | 2.22 | 4.47 | 7.00 | CC(C)(C)OC(=O)N1CCC(Oc2cc(Oc3ccc(/C=C4\SC(=O)NC4=O)cc3)ncn2)CC1 [Example 12, (Z)-tert-Butyl 4-((6-(4-((2,4-dioxothiazolidin-5-ylidene)methyl)phenoxy)pyrimidin-4-yl)oxy)piperidine-1-carboxylate] | 23.4 | 66.7 |
| 124 | 0.79 | 1.32 | 2.24 | Cc1c(Oc2ccc(/C=C3\SC(=O)NC3=O)cc2)ncnc1OC1CCN(c2nc(C(C)C)no2)CC1 [Example 7, (Z)-5-(4-((6-((1-(3-iso-Propyl-1,2,4-oxadiazol-5-yl)piperidin-4-yl)oxy)-5-methylpyrimidin-4-yl)oxy)benzylidene)thiazolidine-2,4-dione] | 29.0 | 22.4 |
| – | 0.52 | 0.85 | 1.67 | COc1cc(/C=C2\SC(=O)NC2=O)ccc1Oc1ncnc(OC2CCN(C(=O)OC(C)(C)C)CC2)c1C [Example 8, (Z)-tert-Butyl 4-((6-(4-((2,4-dioxothiazolidin-5-ylidene)methyl)-2-methoxyphenoxy)-5-methylpyrimidin-4-yl)oxy)piperidine-1-carboxylate] | – | – |
| – | 1.38 | 2.89 | 4.79 | Cc1c(Oc2cccc(/C=C3\SC(=O)NC3=O)c2)ncnc1OC1CCN(Cc2ccccc2)CC1 [Example 27, (Z)-5-(3-((6-((1-Benzylpiperidin-4-yl)oxy)-5-methylpyrimidin-4-yl)oxy)benzylidene)thiazolidine-2,4-dione] | – | – |
| 43 | 2.54 | 4.86 | 6.57 | Cc1c(Oc2cccc(/C=C3\SC(=O)NC3=O)c2)ncnc1OC1CCN(C(=O)OC(C)(C)C)CC1 [Example 9, (Z)-tert-Butyl 4-((6-(3-((2,4-dioxothiazolidin-5-ylidene)methyl)phenoxy)-5-methylpyrimidin-4-yl)oxy)piperidine-1-carboxylate] | 32.4 | 69.1 |
| – | 0.56 | 0.57 | 0.96 | COC(=O)N1CCC(Oc2cc(Oc3ccc(/C=C4\SC(=O)NC4=O)cc3)ncn2)CC1 [Example 35, (Z)-Methyl 4-((6-(4-((2,4-dioxothiazolidin-5-ylidene)methyl)phenoxy)pyrimidin-4-yl)oxy)piperidine-1-carboxylate] | – | – |

Further lines, the compound ahead of its results:

| Compound | EC50 (human GPR 119 receptor) [nM] | Fold increase in cyclic AMP with respective to DMSO (human GPR 119 receptor; 10 nM compound) [fold] | Fold increase in cyclic AMP with respective to DMSO (human GPR 119 receptor; 100 nM compound) [fold] | Fold increase in cyclic AMP with respective to DMSO (human GPR 119 receptor; 1 uM compound) [fold] | % reduction in AUC at 50 mg/kg (C57/BL6 mice) [%] | % reduction in AUC at 50 mg/kg (db/db mice) [%] |
| --- | --- | --- | --- | --- | --- | --- |
| CC(C)c1noc(N2CCC(Oc3cc(Oc4cccc(/C=C5\SC(=O)NC5=O)c4)ncn3)CC2)n1 [Example 66, (Z)-5-(3-((6-((1-(3-isopropyl-1,2,4-oxadiazol-5-yl)piperidin-4-yl)oxy)pyrimidin-4-yl)oxy)benzylidene)thiazolidine-2,4-dione] | 71 | – | – | – | 41.1 | – |
| CCOC(=O)CN1C(=O)S/C(=C\c2ccc(Oc3ncnc(OC4CCN(C(=O)OC(C)(C)C)CC4)c3C)cc2)C1=O [Example 2, (Z)-tert-Butyl 4-((6-(4-((3-(2-ethoxy-2-oxoethyl)-2,4-dioxothiazolidin-5-ylidene)methyl)phenoxy)-5-methylpyrimidin-4-yl)oxy)piperidine-1-carboxylate] | – | 5.90 | 8.00 | 12.56 | 13.0 | 47.3 |
| CC(C)COC(=O)N1CCC(Oc2cc(Oc3ccc(/C=C4\SC(=O)NC4=O)cc3)ncn2)CC1 [Example 53, (Z)-Isobutyl 4-((6-(4-((2,4-dioxothiazolidin-5-ylidene)methyl)phenoxy)pyrimidin-4-yl)oxy)piperidine-1-carboxylate] | – | 0.99 | 1.79 | 3.59 | – | – |
| CC(C)COC(=O)N1CCC(Oc2cc(Oc3cccc(/C=C4\SC(=O)NC4=O)c3)ncn2)CC1 [Example 54, (Z)-Isobutyl 4-((6-(3-((2,4-dioxothiazolidin-5-ylidene)methyl)phenoxy)pyrimidin-4-yl)oxy)piperidine-1-carboxylate] | – | 1.31 | 2.28 | 4.11 | – | – |
| CCOC(=O)N1CCC(Oc2ncnc(Oc3cccc(/C=C4\SC(=O)NC4=O)c3)c2C)CC1 [Example 20, (Z)-Ethyl 4-((6-(3-((2,4-dioxothiazolidin-5-ylidene)methyl)phenoxy)-5-methylpyrimidin-4-yl)oxy)piperidine-1-carboxylate] | – | 0.59 | 2.02 | 2.39 | – | – |
| Cc1c(Oc2ccc(/C=C3\SC(=O)NC3=O)cc2)ncnc1OC1CCN(c2ncccn2)CC1 [Example 17, (Z)-5-(4-((5-Methyl-6-((1-(pyrimidin-2-yl)piperidin-4-yl)oxy)pyrimidin-4-yl)oxy)benzylidene)thiazolidine-2,4-dione] | – | 0.84 | 1.06 | 2.57 | – | – |

Reference: patent US8785463B2, “GPR 119 agonists” (Cadila Healthcare Limited, priority 2010, dated 2014)
